In ChEMBL document CHEMBL2311347, “The discovery of fused oxadiazepines as gamma secretase modulators for treatment of Alzheimer's disease” (Bioorg Med Chem Lett, 2013):

Assays:
Rattus norvegicus [1] = test: Antialzheimer's disease activity in rat assessed as reduction in Abeta42 level at 10 mg/kg, po measured after 3 hrs post dose; format: functional
hERG = hERG (Homo sapiens, UniProt Q12809); test: Inhibition of human ERG at 10 uM
[2] = target: Gamma-secretase (Homo sapiens) (UniProt Q96BI3+Q9NZ42+Q8WW43+P49768+Q92542+P49810); test: Inhibition of gamma secretase (unknown origin) assessed as ratio of Abeta to Abeta42 level; format: protein-complex assay
Gamma-secretase = test: Inhibition of gamma secretase (unknown origin) assessed as reduction of Abeta42 production; format: protein-complex assay, Homo sapiens
[3] = target: T1, Nuclear receptor subfamily 1 group I member 2 (Homo sapiens, UniProt O75469); test: Activation of PXR (unknown origin) assessed as induction of CYP2B1/2 expression up to 30 uM relative to untreated control; format: ADME
T1 sequence (O75469 whole entry): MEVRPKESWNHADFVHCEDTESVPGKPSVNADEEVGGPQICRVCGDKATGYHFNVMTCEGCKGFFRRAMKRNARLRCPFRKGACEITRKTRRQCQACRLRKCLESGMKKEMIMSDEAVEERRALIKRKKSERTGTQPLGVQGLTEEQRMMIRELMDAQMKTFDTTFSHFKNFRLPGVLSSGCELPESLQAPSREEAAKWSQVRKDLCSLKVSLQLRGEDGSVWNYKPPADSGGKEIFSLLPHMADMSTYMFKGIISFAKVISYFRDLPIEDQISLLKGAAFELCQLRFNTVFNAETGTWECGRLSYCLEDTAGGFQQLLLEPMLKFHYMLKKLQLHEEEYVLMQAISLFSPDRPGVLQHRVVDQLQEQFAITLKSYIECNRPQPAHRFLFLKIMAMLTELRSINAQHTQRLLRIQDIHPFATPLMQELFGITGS

[4] = target: T1, Nuclear receptor subfamily 1 group I member 2; test: Activation of PXR (unknown origin) assessed as induction of CYP3A1 expression up to 30 uM relative to untreated control; format: ADME
[5] = target: T1, Nuclear receptor subfamily 1 group I member 2; test: Activation of PXR (unknown origin) assessed as induction of CYP1A1 expression up to 30 uM relative to untreated control; format: ADME
Cytochrome P450 2C9 = Cytochrome P450 2C9 (Homo sapiens, UniProt P11712); test: Inhibition of CYP2C9 (unknown origin); format: ADME
Cytochrome P450 2C9, sequence (P11712 whole entry): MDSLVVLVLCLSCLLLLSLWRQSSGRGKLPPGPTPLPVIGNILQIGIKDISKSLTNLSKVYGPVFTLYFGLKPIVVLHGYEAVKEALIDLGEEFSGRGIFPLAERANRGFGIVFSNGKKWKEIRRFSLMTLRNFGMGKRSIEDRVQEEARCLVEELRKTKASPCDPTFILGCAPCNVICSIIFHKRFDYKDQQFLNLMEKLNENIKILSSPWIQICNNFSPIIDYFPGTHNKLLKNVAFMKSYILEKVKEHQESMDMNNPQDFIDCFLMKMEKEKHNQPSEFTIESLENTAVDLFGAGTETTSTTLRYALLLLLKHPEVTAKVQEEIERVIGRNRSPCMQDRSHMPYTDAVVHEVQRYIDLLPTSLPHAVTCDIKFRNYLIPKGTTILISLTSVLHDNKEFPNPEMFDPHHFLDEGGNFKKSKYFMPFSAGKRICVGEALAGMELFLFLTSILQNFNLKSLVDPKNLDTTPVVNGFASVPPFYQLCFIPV

Cytochrome P450 3A4 = Cytochrome P450 3A4 (Homo sapiens, UniProt P08684); test: Inhibition of CYP3A4 (unknown origin); format: ADME
Cytochrome P450 3A4, sequence (P08684 whole entry): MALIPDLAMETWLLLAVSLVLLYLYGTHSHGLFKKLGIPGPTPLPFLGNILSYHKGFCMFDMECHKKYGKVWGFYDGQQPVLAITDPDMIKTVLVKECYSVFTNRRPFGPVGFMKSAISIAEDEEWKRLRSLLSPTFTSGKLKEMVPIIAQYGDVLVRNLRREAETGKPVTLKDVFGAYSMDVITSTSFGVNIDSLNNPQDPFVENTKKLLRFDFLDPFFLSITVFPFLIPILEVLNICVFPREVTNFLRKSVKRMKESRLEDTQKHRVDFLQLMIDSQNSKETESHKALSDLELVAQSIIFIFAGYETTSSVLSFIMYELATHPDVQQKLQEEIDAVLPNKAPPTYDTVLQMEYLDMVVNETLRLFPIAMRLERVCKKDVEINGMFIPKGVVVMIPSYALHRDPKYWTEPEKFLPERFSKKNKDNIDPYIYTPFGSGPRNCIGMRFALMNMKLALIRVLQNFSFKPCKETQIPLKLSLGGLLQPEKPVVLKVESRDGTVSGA

Cytochrome P450 2D6 = Cytochrome P450 2D6 (Homo sapiens, UniProt P10635); test: Inhibition of CYP2D6 (unknown origin); format: ADME
Cytochrome P450 2D6, sequence (P10635 whole entry): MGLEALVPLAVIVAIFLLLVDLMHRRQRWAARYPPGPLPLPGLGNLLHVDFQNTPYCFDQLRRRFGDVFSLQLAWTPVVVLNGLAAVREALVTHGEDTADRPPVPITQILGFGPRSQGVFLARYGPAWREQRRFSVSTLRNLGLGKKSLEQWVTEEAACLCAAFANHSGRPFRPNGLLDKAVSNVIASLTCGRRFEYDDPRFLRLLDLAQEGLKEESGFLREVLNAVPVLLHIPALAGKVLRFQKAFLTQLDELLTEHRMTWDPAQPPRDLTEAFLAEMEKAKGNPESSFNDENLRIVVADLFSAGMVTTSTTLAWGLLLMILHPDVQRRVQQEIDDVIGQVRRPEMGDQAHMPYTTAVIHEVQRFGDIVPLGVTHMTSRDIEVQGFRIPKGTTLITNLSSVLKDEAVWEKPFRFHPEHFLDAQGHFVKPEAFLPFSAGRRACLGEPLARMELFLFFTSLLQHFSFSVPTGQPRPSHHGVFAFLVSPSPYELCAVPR

[6] = Ratio of drug level in brain to plasma in rat at 10 mg/kg, po measured after 6 hrs post dose; format: ADME, organism-based; set-up: dose 10 mg/kg, route oral; conditions: read-out: BPR
[7] = Drug level in rat brain at 10 mg/kg, po measured after 6 hrs post dose; format: ADME, organism-based; set-up: dose 10 mg/kg, route oral; conditions: read-out: Drug uptake
[8] = AUC in rat at 10 mg/kg, po measured after 6 hrs post dose; format: ADME, organism-based; set-up: time < 6 hr, dose 10 mg/kg, route oral; conditions: plasma
Rattus norvegicus [9] = test: Antialzheimer's disease activity in rat assessed as reduction in Abeta42 level at 3 mg/kg, po measured after 3 hrs post dose; format: functional
Rattus norvegicus [10] = test: Antialzheimer's disease activity in rat assessed as reduction in Abeta42 level at 30 mg/kg, po measured after 3 hrs post dose; format: functional
Rattus norvegicus [11] = test: Antialzheimer's disease activity in po dosed rat assessed as reduction in Abeta42 level measured after 3 hrs post dose; format: functional, organism-based

hERG, sequence (Q12809 whole entry): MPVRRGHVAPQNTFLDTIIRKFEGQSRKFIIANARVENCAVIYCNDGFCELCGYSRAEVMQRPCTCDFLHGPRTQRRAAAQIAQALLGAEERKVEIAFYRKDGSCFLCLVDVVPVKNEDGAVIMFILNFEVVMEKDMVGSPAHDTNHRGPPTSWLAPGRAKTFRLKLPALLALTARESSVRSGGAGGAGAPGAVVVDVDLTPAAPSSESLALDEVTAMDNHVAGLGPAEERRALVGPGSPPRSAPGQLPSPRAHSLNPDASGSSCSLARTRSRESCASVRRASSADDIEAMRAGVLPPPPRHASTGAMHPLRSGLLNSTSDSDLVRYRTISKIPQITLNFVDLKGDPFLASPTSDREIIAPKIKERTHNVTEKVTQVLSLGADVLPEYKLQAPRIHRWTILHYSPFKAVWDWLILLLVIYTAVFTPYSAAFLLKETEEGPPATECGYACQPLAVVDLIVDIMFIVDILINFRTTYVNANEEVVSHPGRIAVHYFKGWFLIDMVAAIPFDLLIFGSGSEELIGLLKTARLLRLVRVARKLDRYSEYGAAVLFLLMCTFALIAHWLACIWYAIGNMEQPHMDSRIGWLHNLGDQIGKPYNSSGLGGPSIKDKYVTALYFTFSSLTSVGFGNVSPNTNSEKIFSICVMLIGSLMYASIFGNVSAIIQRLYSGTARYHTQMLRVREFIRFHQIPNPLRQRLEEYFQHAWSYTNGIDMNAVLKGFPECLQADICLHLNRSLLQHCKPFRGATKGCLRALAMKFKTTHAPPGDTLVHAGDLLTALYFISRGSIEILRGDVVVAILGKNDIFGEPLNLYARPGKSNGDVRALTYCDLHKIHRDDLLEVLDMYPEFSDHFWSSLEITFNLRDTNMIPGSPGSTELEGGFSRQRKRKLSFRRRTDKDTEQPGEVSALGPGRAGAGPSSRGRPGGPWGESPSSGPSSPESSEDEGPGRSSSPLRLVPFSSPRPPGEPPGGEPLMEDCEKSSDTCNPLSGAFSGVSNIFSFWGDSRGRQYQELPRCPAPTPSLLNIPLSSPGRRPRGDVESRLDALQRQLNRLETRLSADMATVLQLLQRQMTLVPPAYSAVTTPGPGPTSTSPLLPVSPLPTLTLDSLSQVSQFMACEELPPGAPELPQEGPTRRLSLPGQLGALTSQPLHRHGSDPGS

| SMILES | inhibition in vivo at 10 mg/kg (Rattus norvegicus [1]) [%] | inhibition at 10 µM (hERG) [%] | Ratio [2] | IC50 (Gamma-secretase) [nM] | also measured |
| --- | --- | --- | --- | --- | --- |
| COc1cc(/C=C2\CCCN3C2=NOCC[C@@H]3c2ccc(F)cc2)ccc1-n1cnc(C)c1 | 40 | 81 | 409 | 49 | – |
| COc1cc(/C=C2\CCCN3C2=NOCC[C@@H]3c2ccc(F)c(Cl)c2)ccc1-n1cnc(C)c1 | 38 | 39 | 340 | 40 | – |
| COc1cc(/C=C2\CCCN3CCC(c4cc(F)cc(F)c4)ON=C23)ccc1-n1cnc(C)c1 (configuration not stated) | – | – | 371 | 41 | – |
| COc1cc(/C=C2\CCCN3C2=NOCC[C@@H]3c2cc(F)cc(F)c2)ccc1-n1cnc(C)c1 | 39 | 49 | 392 | 37 | – |
| COc1cc(/C=C2\CCCN3C2=NOCC[C@@H]3c2ccc(Cl)c(F)c2)ccc1-n1cnc(C)c1 | 57 | – | 210 | 95 | – |
| COc1cc(/C=C2\CCCN3CCC(c4ccccc4)ON=C23)ccc1-n1cnc(C)c1 (configuration not stated) | – | 93 | 489 | 41 | – |
| COc1cc(/C=C2\CCCN3C2=NOC[C@@H]3c2cc(F)c(F)c(F)c2)ccc1-n1cnc(C)c1 | – | – | 607 | – | – |
| COc1cc(/C=C2\CCCCN3C2=NOC[C@@H]3c2cc(F)c(F)c(F)c2)ccc1-n1cnc(C)c1 | – | – | 32 | 88 | – |
| COc1cc(/C=C2\CCCN3CC(c4ccc(F)cc4)CON=C23)ccc1-n1cnc(C)c1 (configuration not stated) | – | 90 | 150 | 130 | – |
| COc1cc(/C=C2\CCCCN3C2=NOC[C@@H]3c2ccc(F)cc2)ccc1-n1cnc(C)c1 | – | – | 35 | 580 | – |
| COc1cc(/C=C2\CCCN3CCC(c4cc(F)c(F)c(F)c4)ON=C23)ccc1-n1cnc(C)c1 (configuration not stated) | – | 89 | 364 | 53 | – |
| COc1cc(/C=C2\CCCN3C2=NOC[C@@H](O)[C@@H]3c2cc(F)cc(F)c2)ccc1-n1cnc(C)c1 | – | 55 | 83 | 240 | – |
| COc1cc(/C=C2\CCCN3C2=NOCC[C@@H]3c2cc(F)c(F)c(F)c2)ccc1-n1cnc(C)c1 | 61 | 33 | 510 | 39 | Activity [3]: 0%; Activity [4]: 0%; Activity [5]: 2%; IC50 (Cytochrome P450 2C9): > 30000 nM; IC50 (Cytochrome P450 3A4): > 30000 nM; IC50 (Cytochrome P450 2D6): > 30000 nM; Kp at 6 h [6]: 3.2; concentration at 6 h [7]: 1800 ng/g; AUC at 6 h [8]: 15.8 µM·h; inhibition in vivo at 3 mg/kg (Rattus norvegicus [9]): 43%; inhibition in vivo at 30 mg/kg (Rattus norvegicus [10]): 78%; inhibition (Rattus norvegicus [11]): Dose-dependent effect |
| COc1cc(/C=C2\CCCN3C2=NOCC[C@@H]3c2cccc(F)c2)ccc1-n1cnc(C)c1 | – | 86 | 572 | 35 | – |
| COc1cc(/C=C2\CCCN3C2=NOCC[C@@H]3c2ccc(F)cc2F)ccc1-n1cnc(C)c1 | 23 | – | 354 | 52 | – |
| COc1cc(/C=C2\CCCN3C2=NOCC[C@@H]3c2ccc(F)c(F)c2)ccc1-n1cnc(C)c1 | 48 | 56 | 466 | 24 | – |
| COc1cc(/C=C2\CCCN3CCC(c4ccc(F)cc4)ON=C23)ccc1-n1cnc(C)c1 (configuration not stated) | – | 93 | 465 | 43 | – |
| COc1cc(/C=C2\CCCN3C2=NOC(C)CC3c2cc(F)c(F)c(F)c2)ccc1-n1cnc(C)c1 (mixture of isomers) | – | – | 480 | 41 | – |
| CCCO[C@@H]1CON=C2/C(=C/c3ccc(-n4cnc(C)c4)c(OC)c3)CCCN2[C@H]1c1cc(F)cc(F)c1 | – | 42 | 16 | 1260 | – |
| COc1cc(/C=C2\CCCN3CCC(c4cc(F)cc(Cl)c4)ON=C23)ccc1-n1cnc(C)c1 (configuration not stated) | – | 61 | 262 | 64 | – |
| COc1cc(/C=C2\CCCN3C2=NOCC[C@@H]3c2cc(F)cc(Cl)c2)ccc1-n1cnc(C)c1 | 59 | 53 | 480 | 16 | – |
| COc1cc(/C=C2\CCCN3CC(c4ccccc4)CON=C23)ccc1-n1cnc(C)c1 (configuration not stated) | – | – | 140 | 140 | – |
